Experimental data reported in US20050222200A1, “AMIDE DERIVATIVES AS ION CHANNEL LIGANDS AND PHARMACEUTICAL COMPOSITIONS AND METHODS OF USING THE SAME” (Renovis, Inc., priority 2003, published 2005).

molecular target: VR1 (Rattus norvegicus, UniProt O35433); assay: Calcium imaging assay: inhibition of capsaicin induced calcium influx in DRG neurons (Fura2, microscope); format: cell-based; parameters: endogenous in cells; host or cells: DRG neurons; conditions: capsaicin stimulation; class symbols per legend
Sequence (O35433 whole entry): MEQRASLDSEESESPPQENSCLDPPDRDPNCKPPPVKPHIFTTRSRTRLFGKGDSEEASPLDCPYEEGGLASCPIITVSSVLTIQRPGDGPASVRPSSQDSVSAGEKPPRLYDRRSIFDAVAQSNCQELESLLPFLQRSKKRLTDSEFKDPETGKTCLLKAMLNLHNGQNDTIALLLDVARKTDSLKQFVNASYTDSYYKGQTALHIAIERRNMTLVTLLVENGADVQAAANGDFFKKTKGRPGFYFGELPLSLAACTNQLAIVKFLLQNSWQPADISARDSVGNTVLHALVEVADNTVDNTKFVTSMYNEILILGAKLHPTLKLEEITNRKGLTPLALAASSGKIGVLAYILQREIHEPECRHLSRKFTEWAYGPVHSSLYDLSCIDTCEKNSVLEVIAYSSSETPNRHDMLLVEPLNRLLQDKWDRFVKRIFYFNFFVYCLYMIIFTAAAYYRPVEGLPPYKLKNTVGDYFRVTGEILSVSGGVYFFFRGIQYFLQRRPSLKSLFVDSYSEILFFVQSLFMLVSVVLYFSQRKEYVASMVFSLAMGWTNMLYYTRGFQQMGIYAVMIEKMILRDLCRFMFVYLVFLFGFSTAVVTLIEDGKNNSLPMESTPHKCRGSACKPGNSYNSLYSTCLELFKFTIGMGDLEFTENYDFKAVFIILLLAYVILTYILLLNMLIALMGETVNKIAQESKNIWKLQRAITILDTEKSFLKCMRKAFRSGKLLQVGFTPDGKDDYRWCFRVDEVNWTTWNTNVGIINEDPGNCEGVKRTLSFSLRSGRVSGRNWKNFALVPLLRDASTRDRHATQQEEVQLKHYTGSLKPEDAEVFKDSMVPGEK
Description: VR1 protein is a heat-gated cation channel that […] resulting in neuronal membrane depolarization and elevated intracellular calcium levels. Therefore the functional activity of compounds at the VR1 receptor may be determined by measuring changes in intracellular calcium levels in neurons such as the dorsal root ganglion.
DRG neurons were grown on PDL coated 96-well black-walled plates, in the presence of DMEM medium containing 5% Penstrep, 5% Glutamax, 200 μg/ml hygromycin, 5 μg/ml blasticide and 10% heat inactivated FBS. Prior to assay, cells were loaded with 5 μg/ml Fura2 in normal saline solution at 37° C for 40 minutes. Cells were then washed with normal saline to remove dye before commencement of the experiment.
The plated neurons were transferred into a chamber on the stage of a Nikon eclipse TE300 microscope after which neurons were allowed to attain a stable fluorescence for about 10 minutes before beginning the experiment. The assay consists of two stages, a pretreatment phase followed by a treatment phase. First, a solution of the test compound was added from a multivalve perfusion system to the cells for 1 minute (pretreatment). Immediately following, capsaicin (250 nM) was added in the presence of the test compound (treatment) for a specific period between 20 and 60 seconds.
Fura2 was excited at […] to indicate relative calcium ion concentration. Changes in wavelength measurements were made throughout the course of the experiment. The fluorescence ratio was calculated by dividing fluorescence measured at 340 nm by that at 380 nM. Data was collected using Intelligent Imaging’s Slidebook software. All compounds that inhibited capsaicin induced calcium influx greater than 75% were considered positives.
Fluorescence reflecting calcium ion influx is reduced.

SMILES	inhibition of calcium ion influx induced by capsaicin stimulation
CC(C)(C)C#Cc1ccc(C(=O)Nc2ccc3c(c2)OCCO3)cc1 [Compound 373]	++++ (compound exhibited 75% or greater inhibition of calcium ion influx induced by capsaicin stimulation)
CC(C)(C)C#Cc1ccc(C(=O)Nc2cccc(C(F)(F)F)c2)cc1 [Compound 374]	++++ (compound exhibited 75% or greater inhibition of calcium ion influx induced by capsaicin stimulation)
CC(C)Oc1cccc(NC(=O)c2ccc(C#CC(C)(C)C)cc2)c1 [Compound 376]	+++ (compound exhibited 50-75% inhibition of calcium ion influx induced by capsaicin stimulation)
CC(C)(C)C#Cc1ccc(C(=O)Nc2ccc(S(C)(=O)=O)cc2)cc1 [Compound 377]	++++ (compound exhibited 75% or greater inhibition of calcium ion influx induced by capsaicin stimulation)
CC(C)(C)C#Cc1ccc(C(=O)Nc2cccc3cnccc23)cc1 [Compound 378]	++++ (compound exhibited 75% or greater inhibition of calcium ion influx induced by capsaicin stimulation)
CC(C)(C)C#Cc1ccc(C(=O)Nc2cnc3ccccc3c2)cc1 [Compound 379]	++++ (compound exhibited 75% or greater inhibition of calcium ion influx induced by capsaicin stimulation)
CCN(CC)c1ccc(NC(=O)c2ccc(C#CC(C)(C)C)cc2)cc1 [Compound 380]	++ (compound exhibited 25-50% inhibition of calcium ion influx induced by capsaicin stimulation)
CC(C)(C)C#Cc1ccc(C(=O)Nc2ccc(Br)cn2)cc1 [Compound 382]	++ (compound exhibited 25-50% inhibition of calcium ion influx induced by capsaicin stimulation)
CC(C)(C)C#Cc1ccc(C(=O)Nc2ccc(C(F)(F)F)cn2)cc1 [Compound 383]	+++ (compound exhibited 50-75% inhibition of calcium ion influx induced by capsaicin stimulation)
CC(C)(C)C#Cc1ccc(C(=O)Nc2ccc(Cl)nc2)cc1 [Compound 384]	++++ (compound exhibited 75% or greater inhibition of calcium ion influx induced by capsaicin stimulation)
COc1ccc(NC(=O)c2ccc(C#CC(C)(C)C)cc2)cn1 [Compound 385]	++++ (compound exhibited 75% or greater inhibition of calcium ion influx induced by capsaicin stimulation)
Cn1ccc2cc(NC(=O)c3ccc(C#CC(C)(C)C)cc3)ccc21 [Compound 387]	++++ (compound exhibited 75% or greater inhibition of calcium ion influx induced by capsaicin stimulation)
COc1cccc(NC(=O)c2ccc(/C=C/C(F)(F)F)cc2)c1 [Compound 389]	++++ (compound exhibited 75% or greater inhibition of calcium ion influx induced by capsaicin stimulation)
O=C(Nc1ccc(Cl)cc1)c1ccc(/C=C/C(F)(F)F)cc1 [Compound 390]	++ (compound exhibited 25-50% inhibition of calcium ion influx induced by capsaicin stimulation)
COc1ccc(NC(=O)c2ccc(/C=C/C(F)(F)F)cc2)cc1Cl [Compound 391]	+ (compound exhibited 0-25% inhibition of calcium ion influx induced by capsaicin stimulation)
O=C(Nc1ccc(C(F)(F)F)cc1)c1ccc(/C=C/C(F)(F)F)cc1 [Compound 392]	+ (compound exhibited 0-25% inhibition of calcium ion influx induced by capsaicin stimulation)
CC(C)c1ccc(NC(=O)c2ccc(/C=C/C(F)(F)F)cc2)cc1 [Compound 394]	++ (compound exhibited 25-50% inhibition of calcium ion influx induced by capsaicin stimulation)

SMILES	inhibition of calcium ion influx induced by capsaicin stimulation
CCCCc1ccc(NC(=O)c2ccc(/C=C/C(F)(F)F)cc2)cc1 [Compound 395]	+ (compound exhibited 0-25% inhibition of calcium ion influx induced by capsaicin stimulation)
O=C(Nc1ccc2c(c1)OCCO2)c1ccc(/C=C/C(F)(F)F)cc1 [Compound 397]	+++ (compound exhibited 50-75% inhibition of calcium ion influx induced by capsaicin stimulation)
O=C(Nc1cccc(C(F)(F)F)c1)c1ccc(/C=C/C(F)(F)F)cc1 [Compound 398]	++++ (compound exhibited 75% or greater inhibition of calcium ion influx induced by capsaicin stimulation)
O=C(Nc1ccc(OC(F)(F)F)cc1)c1ccc(/C=C/C(F)(F)F)cc1 [Compound 399]	++++ (compound exhibited 75% or greater inhibition of calcium ion influx induced by capsaicin stimulation)
COc1ccc(NC(=O)c2ccc(/C=C/C(F)(F)F)cc2)cn1 [Compound 406]	++ (compound exhibited 25-50% inhibition of calcium ion influx induced by capsaicin stimulation)
CC(C)(C)C#Cc1ccc(C(=O)Nc2cccc(S(C)(=O)=O)c2)cn1 [Compound 411]	++++ (compound exhibited 75% or greater inhibition of calcium ion influx induced by capsaicin stimulation)
CC(C)(C)C#Cc1ccc(C(=O)Nc2cccc(S(C)(=O)=O)c2)cc1 [Compound 412]	++++ (compound exhibited 75% or greater inhibition of calcium ion influx induced by capsaicin stimulation)
CCN(CC)CCOC(=O)c1ccc(NC(=O)c2ccc(C#CC(C)(C)C)nc2)cc1 [Compound 413]	+ (compound exhibited 0-25% inhibition of calcium ion influx induced by capsaicin stimulation)
COc1cccc(NC(=O)c2ccc(C#CC(C)(C)C)nc2)c1 [Compound 414]	++++ (compound exhibited 75% or greater inhibition of calcium ion influx induced by capsaicin stimulation)
COc1ccc(NC(=O)c2ccc(C#CC(C)(C)C)nc2)cc1Cl [Compound 416]	++ (compound exhibited 25-50% inhibition of calcium ion influx induced by capsaicin stimulation)
CC(C)(C)C#Cc1ccc(C(=O)Nc2ccc(C(F)(F)F)cc2)cn1 [Compound 417]	++++ (compound exhibited 75% or greater inhibition of calcium ion influx induced by capsaicin stimulation)
CC(C)(C)C#Cc1ccc(C(=O)Nc2ccc(Cl)c(C(F)(F)F)c2)cn1 [Compound 418]	++++ (compound exhibited 75% or greater inhibition of calcium ion influx induced by capsaicin stimulation)
CC(C)(C)C#Cc1ccc(C(=O)Nc2ccc(C(C)(C)C)cc2)cn1 [Compound 419]	++++ (compound exhibited 75% or greater inhibition of calcium ion influx induced by capsaicin stimulation)
CC(C)c1ccc(NC(=O)c2ccc(C#CC(C)(C)C)nc2)cc1 [Compound 420]	+++ (compound exhibited 50-75% inhibition of calcium ion influx induced by capsaicin stimulation)
CCCCc1ccc(NC(=O)c2ccc(C#CC(C)(C)C)nc2)cc1 [Compound 421]	++ (compound exhibited 25-50% inhibition of calcium ion influx induced by capsaicin stimulation)
COc1cc(NC(=O)c2ccc(C#CC(C)(C)C)nc2)cc(C(F)(F)F)c1 [Compound 422]	++++ (compound exhibited 75% or greater inhibition of calcium ion influx induced by capsaicin stimulation)
